Values quoted from earlier work as cited in PMC11949389 (Polish Journal of Microbiology, 2025).
Values after ≈ are worked out from the molar mass of the structure shown. Where two headings read alike, the source gives them in different places.

Columns and labels:
Staphylococcus aureus [1] = system: Staphylococcus aureus
Staphylococcus sp. = conditions: ref Caballero Gómez et al. 2022
Streptococcus mutans = conditions: ref Jafri et al. (2019)
Candida glabrata = conditions: Candida glabrata; ref Sharifzadeh et al. 2019; Iraji et al. 2020; Biernasiuk et al. 2022; Stringaro et al. 2022
Acinetobacter baumannii [2] = conditions: ref Choudhary et al. 2022
[3] = system: Mupirocin-resistant Staphylococcus aureus; conditions: ref Kwiatkowski et al. 2019
Pseudomonas sp. = conditions: ref Caballero Gómez et al. 2022
Vibrio harveyi = conditions: ref Rossi et al. 2021
[4] = system: Methicillin-resistant Staphylococcus aureus; conditions: for Mechanisms of action: Methicillin-resistant Staphylococcus aureus
[5] = system: Carbapenem-resistant Klebsiella pneumoniae (CRKP); conditions: ref Qian et al. 2020
[6] = system: carbapenem-resistant Klebsiella pneumoniae (CRKP) strains; conditions: CRKP; ref Qian et al. 2020
Candida tropicalis = conditions: with voriconazole, C. tropicalis isolates; ref Sharifzadeh and Shokri (2021)
Candida albicans [7] = conditions: ref Shaban et al. 2020
Candida albicans [8] = system: Candida albicans
Acinetobacter baumannii [9] = conditions: combined with ciprofloxacin, ref Aleksic Sabo et al. (2021)
[10] = system: Mupirocin-susceptible Staphylococcus aureus; conditions: ref Kwiatkowski et al. 2019
Candida auris [11] = conditions: ref Shaban et al. 2020
[12] = system: Singapore grouper iridovirus (SGIV); conditions: ref Wang et al. (2024)
Enterococcus sp. = conditions: ref Caballero Gómez et al. 2022
[13] = system: Vibrio anguillarum, and Vibrio harveyi; conditions: ref Rossi et al. (2021)
Staphylococcus aureus [14] = system: Staphylococcus aureus; remark: listed apart in the source
Candida auris [15] = conditions: Candida auris; ref Shaban et al. 2020
Vibrio anguillarum = conditions: ref Rossi et al. 2021

Question: Which Mechanisms of action (Staphylococcus aureus [1]; ref Macêdo et al. 2022) does the source give for C=CCc1ccc(O)c(OC)c1 [Eugenol] here?
Answer: • Inhibition of efflux pump

Question: And the Mechanisms of action (Staphylococcus aureus [1]; ref Mastoor et al. 2022)?
Answer: • Gene expression reduction linked to intracellular adhesion

Question: What about the Mechanisms of action (Staphylococcus aureus [1]; ref Muniz et al. 2021) of the same compound?
Answer: • Inhibition of norA efflux pump

Question: What about the MIC/Sensitivity (Staphylococcus sp.) of the same compound?
Answer: 300 to 400 µg/mL

Question: And the “planktonic MIC” value (Streptococcus mutans)?
Answer: 200 µg/mL

Question: What about the MIC/Sensitivity (Candida glabrata) of the same compound?
Answer: 1000 to 2000 µg/mL

Question: And the Mechanisms of action (Acinetobacter baumannii [2])?
Answer: • Reduction in exopolysaccharide production • Disruption and inhibition of biofilm • Downregulation of csuE gene

Question: And the MIC/Sensitivity [3]?
Answer: 8340 µg/mL (≈ 50.8 mM)

Question: What about the MIC/Sensitivity (Pseudomonas sp.) of the same compound?
Answer: 300 to 400 µg/mL

Question: What about the MIC/Sensitivity (Vibrio harveyi) of the same compound?
Answer: 308696 µg/mL (≈ 1880 mM)

Question: What about the biofilm eradication ([4]; MIC or 2 × MIC concentrations, established MRSA biofilms, ref El-Far et al. (2021)) of the same compound?
Answer: effectively eradicated established MRSA biofilms

Question: And the Mechanisms of action ([4]; ref Buru et al. 2022)?
Answer: • Downregulation of luxS gene • Inhibition of biofilm production • Enhancement of secondary metabolites • Upregulation of argC protein

Question: What about the Mechanisms of action ([4]; ref El-Far et al. 2021) of the same compound?
Answer: • Downregulation of biofilm-related genes (sarA, icaA, icaD) • Reduction of polysaccharide accumulation and cell adhesion

Question: And the Mechanisms of action [5]?
Answer: • Disruption of cell membrane • Reduction in intracellular pH and ATP levels • Cell membrane hyperpolarization • Downregulation of biofilm-related genes (pgaA, luxS, wbbM, wzm) • Upregulation of mrkA gene

Question: What about the MIC [6] of the same compound?
Answer: 200 µg/mL (≈ 1.22 mM)

Question: What about the FICI (Candida tropicalis) of the same compound?
Answer: 0.25–0.88

Question: What about the Mechanisms of action (Candida albicans [7]) of the same compound?
Answer: • Reduced proteinase production

Question: What about the “planktonic MIC” value (Candida albicans [8]; C. albicans, ref Jafri et al. (2019)) of the same compound?
Answer: 200 µg/mL

Question: What about the MIC/Sensitivity (Candida albicans [8]; Candida albicans, ref Sharifzadeh et al. 2019, Iraji et al. 2020, Shaban et al. 2020, Stringaro et al. 2022, Biernasiuk et al. 2022) of the same compound?
Answer: 500 to 2000 µg/mL

Question: What about the FICI (Acinetobacter baumannii [9]) of the same compound?
Answer: 0.25–0.32

Question: And the MIC/Sensitivity [10]?
Answer: 2080 µg/mL (≈ 12.7 mM)

Question: And the Mechanisms of action (Candida auris [11])?
Answer: • Reduced proteinase production and host cell adherence

Question: What about the “optimal concentration for inhibiting infection” value [12] of the same compound?
Answer: 100 µM

Question: What about the MIC/Sensitivity (Enterococcus sp.) of the same compound?
Answer: 200 to 450 µg/mL

Question: What about the MIC [13] of the same compound?
Answer: 940 to 7500 µM

Question: And the MIC (Staphylococcus aureus [14]; S. aureus, ref Sharma et al. (2023))?
Answer: 500–1,000 μg/ml

Question: And the MIC/Sensitivity (Staphylococcus aureus [14]; Staphylococcus aureus, ref Kwiatkowski et al. 2020, Sayout et al. 2020, Sousa Silveira et al. 2020, Macêdo et al. 2022, Noumi et al. 2023, Sharma et al. 2023)?
Answer: 24 to 11100 µg/mL

Question: What about the MIC/Sensitivity (Candida krusei; Candida krusei, ref Sharifzadeh et al. 2019, Iraji et al. 2020, Biernasiuk et al. 2022, Stringaro et al. 2022) of the same compound?
Answer: 250 to 1000 µg/mL

Question: And the FICI (Candida krusei; with voriconazole, C. krusei isolates, ref Sharifzadeh and Shokri (2021))?
Answer: 0.19–0.63

Question: What about the MIC/Sensitivity (Candida auris [15]) of the same compound?
Answer: 625 µg/mL (≈ 3.81 mM)

Question: And the MIC/Sensitivity (Vibrio anguillarum)?
Answer: 308696 µg/mL (≈ 1880 mM)
